The values below come from patent publication US10596160B2, “Compositions, methods and uses for the treatment of diabetes and related conditions by controlling blood glucose level” (PHARNEXT, priority 2012, dated 2020).

Entries after “also recorded” stand apart in the source; their conditions may differ.

For test [1], the system named is beta pancreatic INS-1 cells. Put plainly: Prevention of beta cells apoptosis (ssDNA apoptosis detection kit). It is filed as cell-based. Details: concentration or dose not given beside the values. Conditions: 1 h pre-incubation then 24 h in apoptotic conditions, drugs tested alone. As to the method: The beta pancreatic INS-1 cells have been selected for this study. The cells are cultured in complete medium, RPMI 1640 10 mM glucose supplemented with 1 mM sodium pyruvate, 50 μM 2-mercaptoethanol, 2 mM glutamine, 10 mM HEPES, 100 IU/mL penicillin, 100 μg/mL streptomycin and 10% heat-inactivated fetal calf serum (FCS), as described by Asfari et al. (23). INS-1 cells are plated (4.5×10^4 cells/well) in 96-well poly-ornithine coated plates and cultured at 37° C. in a humidified atmosphere of 95% air/5% CO2. The day after, cells are pre-incubated with the tested molecules for 1 h. Then, after a medium change, cells are cultured for 24 h in a medium containing the tested molecules and 30 mM glucose, 0.05 mM myristic acid, 25 ng/mL INF, 25 ng/mL TNF and 5 ng/mL IL.
The efficacy of compounds to prevent apoptosis is then evaluated by the highly specific apoptosis detection kit from Chemicon (Ref. APT225). This procedure is based on the detection of single-stranded DNA (ssDNA) which is a specific marker of apoptotic cells (24).
Results are expressed in optical density (OD) arbitrary unit and % of reduction of the apoptosis induced by apoptotic condition. Following a Dunnett t-test, all compounds showing a significant decrease in % of apoptotic cells compared to apoptotic control conditions are considered active.

Test [2] has as its system hepatocytes. Kind of test: Glucose production by hepatic cells. The class given is cell-based, rat. The note with it: 10 μM. As to the method: Hepatocytes are isolated from 24 h-fasted male Wistar rats (200-250 g body weight) by ex situ liver perfusion in the presence of collagenase. Cell viability is validated by a trypan blue exclusion test. […] After plating, the medium is removed and cells are cultured for 16 h in RPMI medium without glucose (supplemented with the tested drugs for long-term evaluation). The following day, hepatic glucose production is assessed in Krebs-Ringer Bicarbonate HEPES buffer (KRBH; pH 7.4) in the presence of the neoglucogenic substrates (lactate 10 mM and pyruvate 1 mM) and the tested molecules for 4 h (short-term).
Supernatants are collected and glucose concentrations are determined using a glucose oxidase kit (Instrumentation Laboratory 0018250840). In parallel, protein quantification is performed using the colorimetric Lowry method.
Results are expressed in nmol glucose/mg protein and % of control condition (KLP: KRBH containing lactate and pyruvate).

Test [3] deals with H-2 Kb mouse muscle cells. Put plainly: Glucose uptake in mouse muscle cells. It is filed as cell-based. Conditions: H-2 Kb cells, vs non-treated cells. As for the experimental part:
For differentiation in […], cells are switched to non-permissive culture conditions (37° C. in a humidified atmosphere of 95% air/5% CO2; DMEM 5.5 mM D-glucose supplemented with 2% FCS, 10% horse serum, 2% glutamine, 1% chicken embryo, 100 U/mL penicillin, and 100 μg/mL streptomycin).
For long-term effect evaluation, the day before glucose uptake assay, cells are incubated in DMEM 5.5 mM D-glucose supplemented with 10% horse serum, 2% SVF, 1% chicken embryo, and 2% glutamine in the presence of the tested molecules for 16 h. […]
For short-term effect evaluation, 4 hours prior to the glucose test, cells are washed and incubated in a serum-free medium (DMEM) containing 5.5 mM D-glucose and the tested molecules. Then glucose uptake is measured by incubation of the cells for 5-10 min with radiolabeled 2-deoxy-D-[1,2^3H] glucose in Krebs-Ringer HEPES buffer (KRBH; pH 7.4), 0.1% Bovine Serum Albumin (BSA), and fraction V (Sigma, A-4503). […] Cell-associated radioactivity is then counted and protein quantification is determined using the colorimetric Lowry method. Glucose uptake is estimated by measuring the radioactivity incorporated to the cells by a MicroBeta counter after adding 600 μL per well of scintillant (Optiphase SuperMix3).
Protein quantification is performed by a colorimetric assay derived from the Lowry method. […]

Test [4] has as its system TNFα-induced insulin resistant 3T3-L1 differentiated adipocytes. Kind of test: Glucose uptake in TNFα-induced insulin resistant 3T3-L1 differentiated adipocytes. It is filed as cell-based. Conditions: for enhancement of glucose uptake: drug alone, vs non-treated insulin-resistant cells (TNFα); for enhancement of glucose uptake, combination experiment / enhancement of glucose uptake, combination with metformin: vs TNFα cells; for enhancement of glucose uptake, combination experiment: Dunnett's test; for enhancement of glucose uptake, combination with metformin: combined or alone at the same concentrations. As for the experimental part: 3T3L1 fibroblasts were maintained in DMEM 4.5 g/L glucose supplemented with 5% calf serum donor, 5% newborn calf serum, 100 U/mL penicillin, and 100 μg/mL streptomycin at 37° C. under a 10% CO2 atmosphere. Cells were grown on 24-well plates at a density of 2560 cells/well in 0.5 mL of growth medium (DMEM 4.5 g/L glucose supplemented with 10% FCS, 100 U/mL penicillin, and 100 μg/mL streptomycin). […] Fresh media were replaced after two days.
Glucose uptake was measured by quantification of incorporated radiolabeled glucose, after an incubation step with 2-deoxy-D[1,2^3H] glucose for 5 min. Glucose uptake was arrested by two washing steps in ice-cold PBS 1×, then were solubilized in 0.1N NaOH for 30 min. Cell-associated radioactivity was then counted using a MicroBeta counter after adding 600 μL per well of scintillant (Optiphase SuperMix3).
In parallel, protein quantification was determined by a colorimetric assay derived from the Lowry method. Results are expressed in nmol of glucose incorporated/5 mn/mg of protein and in % of control or basal condition (100%).

The test system of test [5] is beta pancreatic INS-1 cells. Put plainly: Insulin secretion in response to glucose stimulation. The class given is cell-based, rat. As to the method: The cells are cultured in complete medium, RPMI 1640 10 mM glucose supplemented with 1 mM sodium pyruvate, 50 μM 2-mercaptoethanol, 2 mM glutamine, 10 mM HEPES, 100 IU/mL penicillin, 100 μg/mL streptomycin and 10% heat-inactivated fetal calf serum (FCS), as described by Asfari et al. (23). […] After 3 days of culture at 37° C. in a humidified atmosphere of 95% air/5% CO2, the medium is removed and cells are cultured for 16 h in a medium containing 5 mM glucose, 1% FCS (and the tested drugs for long-term evaluation).
The cells are washed again with KRBH and incubated for 1 h in KRBH 0.1% BSA containing 3.5 mM glucose and the tested molecules.
Standards, samples and controls are added to the appropriate wells with a horseradish peroxidase enzyme-labeled monoclonal antibody (conjugate). After incubation, the microplates are washed to remove unbound conjugate and a TMB substrate solution is added to react with the bound conjugate. Finally, after addition of a stop solution, the optical density is measured at 450 nm using a reference wavelength of 620 nm. The intensity of the yellow color is directly proportional to the amount of insulin within the samples.

The subject of test [6] is differentiated 3T3-L1 adipocyte cells. Kind of test: Glucose uptake in 3T3-L1 adipocyte cells. Conditions: 3T3-L1 cells. It is filed as cell-based. As to the method: 3T3-L1 preadipocyte cells were cultured in DMEM containing 1% penicillin-streptomycin (PS) and 10% bovine calf serum at 37° C. in a 5% CO2 atmosphere. […] Differentiation, as measured by the expression of adipogenic markers and the appearance of lipid droplets, usually reaches completion between days 4 and 8. Glucose uptake activity was analyzed by measuring the uptake of radiolabeled glucose. Differentiated 3T3-L1 adipocytes grown in 12-well plates were washed twice with serum-free DMEM and incubated for 2 h at 37° C. with 1 mL DMEM containing 0.1% BSA. […] Next, cells were incubated with or without drugs for different durations in order to evaluate their short-term and long-term effects. To evaluate their short-term effect, cells were incubated with drugs of the invention for 4 hours at 37° C. To evaluate the long-term effect of drugs of the invention, the day prior to the test, cells were pre-incubated with or without drugs for 16 h. The day after, prior to the test, cells were washed and incubated in the presence of the tested molecules for 4 h more. […] After 20 min, glucose uptake was terminated by washing the cells three times with cold PBS. The cells were lysed through incubation for 20 min at 37° C. with 0.7 mL of Triton X-100. Level of radioactivity in the cell lysates was determined using a scintillation counter. Protein quantification was performed by a colorimetric assay derived from the Lowry method.

Setting [7] is: drugs combined at a dose as low as 3.3 nM, or used individually.
Setting [8] is: drugs combined at a dose as low as 10 nM, or used individually.
Where [9] appears, read: fenspiride 3.3 nM and metformin 100 μM.

Turning to `O=C[C@@H](O)[C@@H](O)[C@H](O)[C@H](O)CO` [D-mannose], the “Percentage of apoptosis reduction” value in test [1] is 129%. The “reduction of glucose production” value in test [2] (short-term) is −22%.
With `CO[C@]12C[C@@H](COC(=O)c3cncc(Br)c3)CN(C)[C@@H]1Cc1cn(C)c3cccc2c13` [nicergoline], the “Percentage of apoptosis reduction” value in test [1] was 112%. Further, the “enhancement of glucose uptake” value in test [3] (long-term, 10 μM) is “+28%”.
For `C[C@@H]1CC(=O)NN=C1c1ccc(NN=C(C#N)C#N)cc1` [levosimendan], the “Percentage of apoptosis reduction” value in test [1] is recorded as 118%.
For the molecule `Cc1c(Cl)cccc1Nc1ccccc1C(=O)O` [tolfenamic acid], the “enhancement of glucose uptake” value in test [4] (10 nM) is “+127%”; in test [4] (100 nM), “improvement”; in test [4] (1 μM) it was “improvement”. The “enhancement of glucose uptake, combination experiment” value (shortened to “enhancement … combination experiment”) in test [4] (setting [7]) and in test [4] (setting [8]) was “No significant effect” each time.
Consider `NCC(CC(=O)O)c1ccc(Cl)cc1` (racemic) [baclofen], for which the “Percentage of apoptosis reduction” value in test [1] came to 84%.
Take `CN1CCCC(n2nc(Cc3ccc(Cl)cc3)c3ccccc3c2=O)CC1` (stereo not shown) [azelastine]: in test [1], the “Percentage of apoptosis reduction” value is on record as 81%. For the same molecule, the “reduction of glucose production” value in test [2] (long-term) was −36%.
With `CN(C)C(=N)N=C(N)N` [metformin], the “enhancement of glucose uptake, combination with metformin” value in test [4] (setting [9]) is recorded as “does not lead to any significant improvement; also recorded: No significant effect”; in test [4] (ifenprodil 3.3 nM and metformin 100 μM) it was “does not lead to any significant improvement; also recorded: No significant effect”.
As for `C[C@@H](NCCCc1cccc(C(F)(F)F)c1)c1cccc2ccccc12` [cinacalcet], the “enhancement of insulin secretion” value in test [5] (long-term pre-treatment, 1 μM) is “+55%”. For the same molecule, the “Percentage of apoptosis reduction” value in test [1] is 167%.
For `CCN(CC)C(=O)N1CCN(C)CC1` [diethylcarbamazine], the “Percentage of apoptosis reduction” value in test [1] was 44%.
For `O=C1NCC2(CCN(CCc3ccccc3)CC2)O1` [fenspiride], the “enhancement of glucose uptake” value in test [4] (0.37 nM) is on record as “improvement”; in test [4] (1 nM) it was “+130%”; in test [4] (3.3 nM) it was “improvement”. Moreover, the “enhancement … combination experiment” value in test [4] (setting [7]) and in test [4] (setting [8]) was “No significant effect” throughout. Besides, the “enhancement of glucose uptake, combination with metformin” value in test [4] (setting [9]) is “does not lead to any significant improvement; also recorded: No significant effect”.
`Cc1ccc(C(=O)C(C)CN2CCCCC2)cc1` (stereo not shown) [tolperisone]: in test [1], the “Percentage of apoptosis reduction” value is 78%.
On to `Cc1cccc(Nc2ccncc2S(=O)(=O)NC(=O)NC(C)C)c1` [torasemide], for which the “enhancement of glucose uptake” value is on record as “+121%” in test [4] (0.37 nM), “+123%” in test [4] (1 nM) and “+129%” in test [4] (3.3 nM). The “Percentage of apoptosis reduction” value in test [1] is reported as 67%.
As for `Cc1cccc(C)c1OCC(C)N` (stereo not shown) [mexiletine], the “Percentage of apoptosis reduction” value in test [1] is listed as 74%.
In the case of `c1cnc(N2CCN(Cc3ccc4c(c3)OCO4)CC2)nc1` [piribedil], the “enhancement of glucose uptake” value in test [6] (short-term, 10 nM) is “+68%”.
With `CN(C)CC[C@@H](c1ccc(Br)cc1)c1ccccn1` [dexbrompheniramine], the “Percentage of apoptosis reduction” value in test [1] came out at 76%.
With `Nc1nc(N)c2nc(-c3ccccc3)c(N)nc2n1` [triamterene], the “enhancement of insulin secretion” value in test [5] (short-term pre-treatment, 10 μM) was “+37%”. Moreover, the “enhancement … combination experiment” value in test [4] (setting [8]) is reported as “No significant effect”. Moreover, the “Percentage of apoptosis reduction” value in test [1] is recorded as 64%.
As to `C=CCNc1nc(NCC=C)nc(N2CCN(C(c3ccc(F)cc3)c3ccc(F)cc3)CC2)n1` [almitrine], in test [1], the “Percentage of apoptosis reduction” value stood at 103%. Further, the “enhancement of glucose uptake” value in test [3] (short-term, 1 μM) is on record as “+80%”; in test [6] (long-term, 1 μM), “+69%”.
Turning to `CCN(CC)CCOCCOC(=O)C1(c2ccccc2)CCCC1` [carbetapentane], the “Percentage of apoptosis reduction” value in test [1] is reported as 103%. Also, the “enhancement of glucose uptake” value in test [6] (short-term, 0.1 μM (100 nM)) is listed as “+58%”.
